In ChEMBL document CHEMBL4251541, “Microwave-enhanced Friedländer synthesis for the rapid assembly of halogenated quinolines with antibacterial and biofilm eradication activities against drug resistant and tolerant bacteria” (Medchemcomm, 2017):
≈ marks a conversion by molar mass, not a printed value.

How the values were obtained:
Staphylococcus aureus [1] = assay: Antibiofilm activity against methicillin-resistant Staphylococcus aureus isolate 2 after 24 hrs by calgary biofilm device-based assay; format: functional
Enterococcus faecium [2] = assay: Bactericidal activity against vancomycin-resistant Enterococcus faecium ATCC 700221 after 24 hrs by calgary biofilm device-based assay; format: functional; settings: ATCC 700221, 24 h
Staphylococcus aureus [3] = assay: Antibacterial activity against methicillin-resistant Staphylococcus aureus isolate 2 after 16 to 18 hrs by broth microdilution method; format: functional
Enterococcus faecium [4] = assay: Antibacterial activity against vancomycin-resistant Enterococcus faecium ATCC 700221 after 16 to 18 hrs by broth microdilution method; format: functional
[5] = tested on: Staphylococcus epidermidis; assay: Antibiofilm activity against methicillin-resistant Staphylococcus epidermidis ATCC 35984 after 24 hrs by calgary biofilm device-based assay; format: functional
[6] = tested on: Staphylococcus epidermidis; assay: Bactericidal activity against methicillin-resistant Staphylococcus epidermidis ATCC 35984 after 24 hrs by calgary biofilm device-based assay; format: functional; settings: ATCC 35984, 24 h
Staphylococcus aureus [7] = assay: Antibiofilm activity against methicillin-resistant Staphylococcus aureus BAA 1707 after 24 hrs by calgary biofilm device-based assay; format: functional
Staphylococcus aureus [8] = assay: Bactericidal activity against methicillin-resistant Staphylococcus aureus BAA 1707 after 24 hrs by calgary biofilm device-based assay; format: functional; settings: BAA 1707, 24 h
[9] = Hemolytic activity in human RBC at 200 uM after 1 hr relative to control; format: ADME, cell-based, Erythrocyte; settings: red blood cells (erythrocytes), read-out: Activity
Staphylococcus aureus [10] = assay: Bactericidal activity against methicillin-resistant Staphylococcus aureus isolate 2 after 24 hrs by calgary biofilm device-based assay; format: functional; settings: isolate 2, 24 h
Enterococcus faecium [11] = assay: Antibiofilm activity against vancomycin-resistant Enterococcus faecium ATCC 700221 after 24 hrs by calgary biofilm device-based assay; format: functional
[12] = tested on: Staphylococcus epidermidis; assay: Antibacterial activity against methicillin-resistant Staphylococcus epidermidis ATCC 35984 after 16 to 18 hrs by broth microdilution method; format: functional

Row | SMILES | MBEC (Staphylococcus aureus [1]) [µM] | MBC (Enterococcus faecium [2]) [µM] | MIC (Staphylococcus aureus [3]) [µM] | MIC (Enterococcus faecium [4]) [µM] | MBEC [5] [µM] | MBC [6] [µM] | MBEC (Staphylococcus aureus [7]) [µM] | MBC (Staphylococcus aureus [8]) [µM] | hemolysis at 1 h, 200 µM [9] [%] | MBC (Staphylococcus aureus [10]) [µM] | MBEC (Enterococcus faecium [11]) [µM] | MIC [12] [µM]
1 | Cc1nc2c(O)c(Br)cc(Br)c2cc1C(=O)c1ccccc1 | 23.5 | 46.9 (≈ 19.7 µg/mL) | 0.59 (≈ 0.248 µg/mL) | 0.78 (≈ 0.328 µg/mL) | 1 | 5.9 (≈ 2.48 µg/mL) | 3.9 | 7.8 (≈ 3.28 µg/mL) | 2.5 | 15.6 (≈ 6.57 µg/mL) | 23.5 | 3.13 (≈ 1.32 µg/mL)
2 | Cc1nc2c(O)c(Br)cc(Br)c2cc1C(=O)OCc1ccccc1 | >1000 | 3.9 (≈ 1.76 µg/mL) | 6.25 (≈ 2.82 µg/mL) | 0.3 (≈ 0.135 µg/mL) | 15.6 | 46.9 (≈ 21.2 µg/mL) |  |  | 7.9 | 375 (≈ 169 µg/mL) | 1.5 | 0.1 (≈ 0.0451 µg/mL)
3 | CC(=O)NC[C@H]1CN(c2ccc(N3CCOCC3)c(F)c2)C(=O)O1 [LINEZOLID] | >2000 |  | 3.13 (≈ 1.06 µg/mL) | 3.13 (≈ 1.06 µg/mL) |  |  |  |  | ≤ 1 |  |  | 3.13 (≈ 1.06 µg/mL)
4 | CC(=O)c1cc2c(Br)cc(Br)c(O)c2nc1C | >1000 |  | 1.56 (≈ 0.56 µg/mL) | 25 (≈ 8.98 µg/mL) |  |  |  |  | 2.3 | 250 (≈ 89.8 µg/mL) |  | 6.25 (≈ 2.24 µg/mL)
5 | COC(=O)c1cc2c(Br)cc(Br)c(O)c2nc1C |  |  | 1.56 (≈ 0.585 µg/mL) | 2.35 (≈ 0.881 µg/mL) |  |  |  |  | 1.5 |  |  | 0.3 (≈ 0.113 µg/mL)
6 | CCc1cnc2c(O)c(Br)cc(Br)c2c1 | 188 | 31.3 (≈ 10.4 µg/mL) | 6.25 (≈ 2.07 µg/mL) | 12.5 (≈ 4.14 µg/mL) | 46.9 | 62.5 (≈ 20.7 µg/mL) |  |  | 2.4 | 46.9 (≈ 15.5 µg/mL) | 23.5 | 0.59 (≈ 0.195 µg/mL)
7 | Cc1nc2c(O)c(Br)cc(Br)c2cc1C(=O)O |  |  | 50 (≈ 18 µg/mL) | > 100 |  |  |  |  | 2.5 |  |  | 25 (≈ 9.02 µg/mL)
8 | CCc1nc2c(O)c(Br)cc(Br)c2cc1C | >1000 |  | 6.25 (≈ 2.16 µg/mL) | 0.78 (≈ 0.269 µg/mL) |  |  |  |  | ≤ 1 | > 1000 |  | 0.15 (≈ 0.0518 µg/mL)
9 | CCOC(=O)c1cc2c(Br)cc(Br)c(O)c2nc1C | 31.3 | 3 (≈ 1.17 µg/mL) | 0.39 (≈ 0.152 µg/mL) | 0.78 (≈ 0.303 µg/mL) | 23.5 | 93.8 (≈ 36.5 µg/mL) |  |  | 2.2 | 31.3 (≈ 12.2 µg/mL) | 2 | 0.1 (≈ 0.0389 µg/mL)
10 | Cc1nc2c(O)c(Br)cc(Br)c2cc1C(=O)O/C(=N\C1CCCCC1)NC1CCCCC1 |  |  | 12.5 (≈ 7.09 µg/mL) | 25 (≈ 14.2 µg/mL) |  |  |  |  | ≤ 1 |  |  | 1.56 (≈ 0.885 µg/mL)
11 | CCCCCCCCCC(=O)N[C@@H](Cc1c[nH]c2ccccc12)C(=O)N[C@@H](CC(N)=O)C(=O)N[C@@H](CC(=O)O)C(=O)N[C@@H]1C(=O)NCC(=O)N[C@@H](CCCN)C(=O)N[C@@H](CC(=O)O)C(=O)N[C@H](C)C(=O)N[C@@H](CC(=O)O)C(=O)NCC(=O)N[C@H](CO)C(=O)N[C@@H]([C@H](C)CC(=O)O)C(=O)N[C@@H](CC(=O)c2ccccc2N)C(=O)O[C@@H]1C [DAPTOMYCIN] | >2000 |  |  |  |  |  |  |  |  | 62.5 (≈ 101 µg/mL) |  | 12.5 (≈ 20.3 µg/mL)
12 | CN[C@H](CC(C)C)C(=O)N[C@H]1C(=O)N[C@@H](CC(N)=O)C(=O)N[C@H]2C(=O)N[C@H]3C(=O)N[C@H](C(=O)N[C@H](C(=O)O)c4cc(O)cc(O)c4-c4cc3ccc4O)[C@H](O)c3ccc(c(Cl)c3)Oc3cc2cc(c3O[C@@H]2O[C@H](CO)[C@@H](O)[C@H](O)[C@H]2O[C@H]2C[C@](C)(N)[C@H](O)[C@H](C)O2)Oc2ccc(cc2Cl)[C@H]1O [VANCOMYCIN] | >2000 | > 200 |  | > 100 | >2000 |  | >2000 | 3.9 (≈ 5.65 µg/mL) | ≤ 1 | 3 (≈ 4.35 µg/mL) | 200 | 
13 | CCOC(=O)c1c(C)nc2c(O)c(Br)cc(Br)c2c1C |  |  | 6.25 (≈ 2.52 µg/mL) | 4.69 (≈ 1.89 µg/mL) |  |  |  |  | ≤ 1 |  |  | 1.17 (≈ 0.472 µg/mL)
14 | CCCCCCCCCCCC[N+](C)(C)CC[N+](C)(C)CC[N+](C)(C)CCCCCCCCCCCC | 125 | 3 | 3.13 | 2.35 | 31.3 | 31.3 |  |  | > 99 | 31.3 | 3 | 2.35
15 | Cc1nc2c(O)c(Br)cc(Br)c2cc1C(=O)N1CCOCC1 |  |  | 100 (≈ 43 µg/mL) | > 100 |  |  |  |  | ≤ 1 |  |  | 50 (≈ 21.5 µg/mL)
16 | CCCNC(=O)c1cc2c(Br)cc(Br)c(O)c2nc1C |  |  | 37.5 (≈ 15.1 µg/mL) | 50 (≈ 20.1 µg/mL) |  |  |  |  | 7 |  |  | 12.5 (≈ 5.03 µg/mL)
17 | Oc1c(Br)cc(Br)c2cc(Cc3ccccc3)cnc12 |  |  | 50 (≈ 19.7 µg/mL) | 18.8 (≈ 7.39 µg/mL) |  |  |  |  | 4.6 |  |  | 3.13 (≈ 1.23 µg/mL)
18 | Cc1cnc2c(O)c(Br)cc(Br)c2c1 | 46.9 | 7.8 (≈ 2.47 µg/mL) | 3.13 (≈ 0.992 µg/mL) |  | 31.3 | 23.5 (≈ 7.45 µg/mL) |  |  | ≤ 1 | 15.6 (≈ 4.94 µg/mL) | 5.9 | 1.17 (≈ 0.371 µg/mL)
19 | Oc1c(Br)cc(Br)c2ccc(-c3ccccc3)nc12 |  |  | 25 (≈ 9.48 µg/mL) | > 100 |  |  |  |  | 1.9 |  |  | 
20 | Cc1nc2c(O)c(Br)cc(Br)c2cc1C(=O)NCc1ccccc1 | >1000 |  | 6.25 (≈ 2.81 µg/mL) | 25 (≈ 11.3 µg/mL) |  |  |  |  | 13 | > 2000 |  | 6.25 (≈ 2.81 µg/mL)
21 | Cc1ccc2c(Br)cc(Br)c(O)c2n1 [BROQUINALDOL] | 46.9 | 3 (≈ 0.951 µg/mL) |  | 2.35 (≈ 0.745 µg/mL) | 3 | 7.8 (≈ 2.47 µg/mL) | 31.3 | 31.3 (≈ 9.92 µg/mL) | ≤ 1 | 23.5 (≈ 7.45 µg/mL) | 2 | 0.2 (≈ 0.0634 µg/mL)
22 | Oc1c(Br)cc(Br)c2ccc(-c3ccccn3)nc12 |  |  | 37.5 (≈ 14.3 µg/mL) | 25 (≈ 9.5 µg/mL) |  |  |  |  | ≤ 1 |  |  | 
